What was measured:
[1] = system: S. aureus (including MRSA) 10 strains; test: Detection of various strains of S. aureus in the presence of substrates; format: cell-based, Staphylococcus aureus; settings: for No. of strains detected, S. aureus (including MRSA): 10 strains
[2] = system: Bacillus subtilis NCTC 9372; test: Nitroreductase detection on Columbia agar, colonies read under UV; format: cell-based; design: key: − = no fluorescence detected; +/− = weak fluorescence; + = medium fluorescence; ++ = strong fluorescence; settings: 100 mg/l in Columbia agar, 24 h 37° C., UV 360-365 nm
Protocol: (§1) A mass of 40 mg of each substrate was dissolved in 4 ml of dimethylformamide (DMF). This solution was entirely taken up in 400 ml of Columbia agar autoclaved beforehand and kept molten at 50° C. The final concentration for each substrate was 100 mg/l.
(§2) Each of the media was distributed into Petri dishes 90 mm in diameter, in a proportion of 20 ml per dish.
(§3) 18 microorganism strains derived from collections and belonging to various species of bacteria and of yeasts were inoculated onto these media by semi-quantitative isolation of 10 μl of a suspension at 0.5 McFarland diluted to 1/20. The media were incubated for 24 hours at 37° C., then the colonies formed were examined visually under UV illumination at 360-365 nm.

[3] = system: Staphylococcus epidermidis NCTC 11047; test: as above; format: cell-based; design: key: − = no fluorescence detected; +/− = weak fluorescence; + = medium fluorescence; ++ = strong fluorescence; settings: 100 mg/l in Columbia agar, 24 h 37° C., UV 360-365 nm
Protocol: as §1, §2, §3

[4] = system: Yersinia enterocolitica NCTC 11176; test: as above; format: cell-based; design: key: − = no fluorescence detected; +/− = weak fluorescence; + = medium fluorescence; ++ = strong fluorescence; settings: 100 mg/l in Columbia agar, 24 h 37° C., UV 360-365 nm
Protocol: as §1, §2, §3

[5] = system: Candida albicans ATCC 90028; test: as above; format: cell-based; design: key: − = no fluorescence detected; +/− = weak fluorescence; + = medium fluorescence; ++ = strong fluorescence; settings: 100 mg/l in Columbia agar, 24 h 37° C., UV 360-365 nm
Protocol: as §1, §2, §3

[6] = system: Listeria monocytogenes NCTC 11994; test: as above; format: cell-based; design: key: − = no fluorescence detected; +/− = weak fluorescence; + = medium fluorescence; ++ = strong fluorescence; settings: 100 mg/l in Columbia agar, 24 h 37° C., UV 360-365 nm
Protocol: as §1, §2, §3

[7] = system: Staphylococcus aureus NCTC 6571; test: as above; format: cell-based; design: key: − = no fluorescence detected; +/− = weak fluorescence; + = medium fluorescence; ++ = strong fluorescence; settings: 100 mg/l in Columbia agar, 24 h 37° C., UV 360-365 nm
Protocol: as §1, §2, §3

[8] = system: Providencia rettgeri NCTC 7475; test: as above; format: cell-based; design: key: − = no fluorescence detected; +/− = weak fluorescence; + = medium fluorescence; ++ = strong fluorescence; settings: Table 4; 100 mg/l in Columbia agar, 24 h 37° C., UV 360-365 nm
Protocol: as §1, §2, §3

[9] = system: Enterobacter cloacae NCTC 11936; test: as above; format: cell-based; design: key: − = no fluorescence detected; +/− = weak fluorescence; + = medium fluorescence; ++ = strong fluorescence; settings: 100 mg/l in Columbia agar, 24 h 37° C., UV 360-365 nm
Protocol: as §1, §2, §3

[10] = system: Pseudomonas aeruginosa NCTC 10662; test: as above; format: cell-based; design: key: − = no fluorescence detected; +/− = weak fluorescence; + = medium fluorescence; ++ = strong fluorescence; settings: 100 mg/l in Columbia agar, 24 h 37° C., UV 360-365 nm
Protocol: as §1, §2, §3

[11] = system: Streptococcus pyogenes NCTC 8306; test: as above; format: cell-based; design: key: − = no fluorescence detected; +/− = weak fluorescence; + = medium fluorescence; ++ = strong fluorescence; settings: 100 mg/l in Columbia agar, 24 h 37° C., UV 360-365 nm
Protocol: as §1, §2, §3

[12] = system: Escherichia coli NCTC 10418; test: as above; format: cell-based; design: key: − = no fluorescence detected; +/− = weak fluorescence; + = medium fluorescence; ++ = strong fluorescence; settings: 100 mg/l in Columbia agar, 24 h 37° C., UV 360-365 nm
Protocol: as §1, §2, §3

[13] = system: Enterococcus faecium NCTC 7171; test: as above; format: cell-based; design: key: − = no fluorescence detected; +/− = weak fluorescence; + = medium fluorescence; ++ = strong fluorescence; settings: Table 4; 100 mg/l in Columbia agar, 24 h 37° C., UV 360-365 nm
Protocol: as §1, §2, §3

[14] = system: Serratia marcescens NCTC 10211; test: as above; format: cell-based; design: key: − = no fluorescence detected; +/− = weak fluorescence; + = medium fluorescence; ++ = strong fluorescence; settings: 100 mg/l in Columbia agar, 24 h 37° C., UV 360-365 nm
Protocol: as §1, §2, §3

[15] = system: Citrobacter freundii 46262 (wild); test: as above; format: cell-based; design: key: − = no fluorescence detected; +/− = weak fluorescence; + = medium fluorescence; ++ = strong fluorescence; settings: Table 4; 100 mg/l in Columbia agar, 24 h 37° C., UV 360-365 nm
Protocol: as §1, §2, §3

[16] = system: Enterococcus faecalis NCTC 775; test: as above; format: cell-based; design: key: − = no fluorescence detected; +/− = weak fluorescence; + = medium fluorescence; ++ = strong fluorescence; settings: 100 mg/l in Columbia agar, 24 h 37° C., UV 360-365 nm
Protocol: as §1, §2, §3

[17] = system: S. epidermidis 2 strains; test: Detection of various strains of S. aureus in the presence of substrates; format: cell-based
Protocol: as §1, §2
18 microorganism strains derived from collections and belonging to various species of bacteria and of yeasts were inoculated onto these media by semi-quantitative isolation of 10 μl of a suspension at 0.5 McFarland diluted to 1/20. […]

[18] = system: Morganella morganii 462403 (wild); test: Nitroreductase detection on Columbia agar, colonies read under UV; format: cell-based; design: key to Intensity of fluorescence, Morganella morganii 462403 / F: fluorescence (intensity), Morganella morganii 462403 (wild) / Intensity of the fluorescence, Morganella morganii 462403 (wild): − = no fluorescence detected; +/− = weak fluorescence; + = medium fluorescence; ++ = strong fluorescence; settings: 100 mg/l in Columbia agar, 24 h 37° C., UV 360-365 nm
Protocol: as §1, §2, §3

[19] = system: Enterococcus 6 strains; test: Detection of various strains of S. aureus in the presence of substrates; format: cell-based
[20] = system: Staph spp 12 strains; test: as above; format: cell-based
[21] = system: Salmonella typhimurium NCTC 74; test: Nitroreductase detection on Columbia agar, colonies read under UV; format: cell-based; design: key to Intensity of fluorescence, Salmonella typhimurium NCTC 74 / F: fluorescence (intensity), Salmonella typhimurium NCTC 74 / Intensity of the fluorescence, Salmonella typhimurium NCTC 74: − = no fluorescence detected; +/− = weak fluorescence; + = medium fluorescence; ++ = strong fluorescence
Protocol: as §1, §2, §3

[22] = system: Candida glabrata NCPF 3943; test: as above; format: cell-based; design: key to Intensity of fluorescence, Candida glabrata NCPF3943 / F: fluorescence (intensity), Candida glabrata NCPF 3943 / Intensity of the fluorescence, Candida glabrata NCPF 3943: − = no fluorescence detected; +/− = weak fluorescence; + = medium fluorescence; ++ = strong fluorescence; settings: 100 mg/l in Columbia agar, 24 h 37° C., UV 360-365 nm
Protocol: as §1, §2, §3

[23] = system: MRSA NCTC 11939; test: as above; format: cell-based, Staphylococcus aureus; design: key: − = no fluorescence detected; +/− = weak fluorescence; + = medium fluorescence; ++ = strong fluorescence; settings: 100 mg/l in Columbia agar, 24 h 37° C., UV 360-365 nm
Protocol: as §1, §2, §3

[24] = system: Acinetobacter baumanii ATCC 19606; test: as above; format: cell-based; design: key to Intensity of fluorescence, Acinetobacter baumanii ATCC 19606 / Intensity of the fluorescence, Acinetobacter baumanii ATCC 19606: − = no fluorescence detected; +/− = weak fluorescence; + = medium fluorescence; ++ = strong fluorescence
Protocol: as §1, §2, §3

[25] = 100 mg/l in Columbia agar, 24 h 37° C., UV 360-365 nm
[26] = Table 4, 100 mg/l in Columbia agar, 24 h 37° C., UV 360-365 nm

O=[N+]([O-])c1ccc(F)cc1-c1nc2ccccc2s1 [Substrate 15]
Distinguishing or identifying Staphylococcus aureus strains, in particular MRSA, from most of the other Gram-positive bacterial strains [1]: make it possible to distinguish or identify the Staphylococcus aureus strains
No. of strains detected, S. aureus (including MRSA) ([1]; 24 h): 10
No. of strains detected, S. aureus (including MRSA) ([1]; 48 h): 10
Intensity of fluorescence, Bacillus subtilis NCTC 9372 [2]: −
Intensity of the fluorescence, Bacillus subtilis NCTC 9372 ([2]; Table 4): −
Intensity of fluorescence, Staphylococcus epidermidis NCTC 11047 [3]: −
Intensity of the fluorescence, Staphylococcus epidermidis NCTC 11047 ([3]; Table 4): −
Intensity of fluorescence, Yersinia enterocolitica NCTC 11176 [4]: −
Intensity of the fluorescence, Yersinia enterocolitica NCTC 11176 ([4]; Table 4): −
Intensity of fluorescence, Candida albicans ATCC 90028 [5]: −
Intensity of the fluorescence, Candida albicans ATCC 90028 ([5]; Table 4): −
Intensity of fluorescence, Listeria monocytogenes NCTC 11994 [6]: −
Intensity of the fluorescence, Listeria monocytogenes NCTC 11994 ([6]; Table 4): −
Intensity of fluorescence, Staphylococcus aureus NCTC 6571 [7]: ++
Intensity of the fluorescence, Staphylococcus aureus NCTC 6571 ([7]; Table 4): ++
Intensity of the fluorescence, Providencia rettgeri NCTC 7475 [8]: ++
Intensity of fluorescence, Enterobacter cloacae NCTC 11936 [9]: ++
Intensity of the fluorescence, Enterobacter cloacae NCTC 11936 ([9]; Table 4): ++
Intensity of fluorescence, Pseudomonas aeruginosa NCTC 10662 [10]: −
Intensity of the fluorescence, Pseudomonas aeruginosa NCTC 10662 ([10]; Table 4): +
Intensity of fluorescence, Streptococcus pyogenes NCTC 8306 [11]: −
Intensity of the fluorescence, Streptococcus pyogenes NCTC 8306 ([11]; Table 4): −
Intensity of fluorescence, Escherichia coli NCTC 10418 [12]: ++
Intensity of the fluorescence, Escherichia coli NCTC 10418 ([12]; Table 4): ++
Intensity of the fluorescence, Enterococcus faecium NCTC 7171 [13]: −
Intensity of fluorescence, Serratia marcescens NCTC 10211 [14]: ++
Intensity of the fluorescence, Serratia marcescens NCTC 10211 ([14]; Table 4): ++
Intensity of the fluorescence, Citrobacter freundii 46262 (wild) [15]: ++
Intensity of fluorescence, Enterococcus faecalis NCTC 775 [16]: −
Intensity of the fluorescence, Enterococcus faecails NCTC 775 ([16]; Table 4): −
No. of strains detected, S. epidermidis ([17]; 24 h): 0
No. of strains detected, S. epidermidis ([17]; 48 h): 2
Intensity of fluorescence, Morganella morganii 462403 [18]: ++
Intensity of the fluorescence, Morganella morganii 462403 (wild) ([18]; Table 4): ++
No. of strains detected, Enterococcus ([19]; 24 h): 0
No. of strains detected, Enterococcus ([19]; 48 h): 1
No. of strains detected, Staph spp ([20]; 24 h): 12
No. of strains detected, Staph spp ([20]; 48 h): 12
Intensity of fluorescence, Salmonella typhimurium NCTC 74 [21, 25]: ++
Intensity of the fluorescence, Salmonella typhimurium NCTC 74 [21, 26]: ++
Salmonella typhimurium result with the substrate ([21]; table 2): strongly positive
Intensity of fluorescence, Candida glabrata NCPF3943 [22]: −
Intensity of the fluorescence, Candida glabrata NCPF 3943 ([22]; Table 4): −
Intensity of fluorescence, Staphylococcus aureus NCTC 11939 [23]: ++
Intensity of the fluorescence, MRSA NCTC 11939 ([23]; Table 4): ++
Intensity of fluorescence, Acinetobacter baumanii ATCC 19606 [24, 25]: +
Intensity of the fluorescence, Acinetobacter baumanii ATCC 19606 [24, 26]: +
Distinguishing Pseudomonas aeruginosa from Acinetobacter baumanii ([24]; table 2): make it possible to distinguish Pseudomonas aeruginosa from Acinetobacter baumanii
